The text below walks through data of publication PMC3036843 (Bioconjugate chemistry, 2010).

The subject of one data set is L1210FR. The note with it: for differences in IC50 values against the three cell lines: L1210FR, L1210, WI38, at most.
The next data set can be described thus: in vitro. The note with it: human, WI38 human lung fibroblast cells.
For the next data set, the system named is L1210. The data set can be described thus: cells. The note with it: Mus musculus, L1210, 72 h, read-out: Cytotoxicities (IC50), L1210.
For data set [1] the following is noted: taxoid released from first-generation mAb-taxoid DDS; cited from earlier work.
The test system of another data set is L1210FR cells. The data set can be described thus: Internalization of biotin-FITC probe 2 by CFM and flow cytometry. The note with it: 100 nM. In kind it is cell-based, murine.

On to `CC(=O)O[C@@]12CO[C@@H]1C[C@H](O)[C@@]1(C)C(=O)[C@H](OC(=O)C3CC3)C3=C(C)[C@@H](OC(=O)[C@H](O)[C@H](C=C(C)C)NC(=O)OC(C)(C)C)C[C@@](O)([C@@H](OC(=O)c4ccccc4)[C@H]21)C3(C)C` [SB-T-1214], for which the “times more potent than paclitaxel” value in the data set on L1210FR (against L1210FR) was “ca. 13 times”.

The term IC50 denotes the concentration that gives 50% inhibition. Turning to `CC(=O)O[C@H]1C(=O)[C@@]2(C)[C@H]([C@H](OC(=O)c3ccccc3)[C@]3(O)C[C@H](OC(=O)[C@H](O)[C@@H](NC(=O)c4ccccc4)c4ccccc4)C(C)=C1C3(C)C)[C@]1(OC(C)=O)CO[C@@H]1C[C@@H]2O` [paclitaxel, reference compound], in the data set on L1210FR, the “differences in IC50 values against the three cell lines” value is “less than 45%”. In addition, the IC50 came out at 121 nM in the data set with L1210FR (mouse, 72 h) and 151 nM in the data set with L1210. Moreover, the IC50 at 72 h in the data set “in vitro” was 157 nM.

In the case of SB-T-1214-fluorescein [compound 24], the “differences in IC50 values against the three cell lines” value in the data set with L1210FR is given as “less than 45%”. Also, in the data set on L1210FR (against L1210FR), the “times less potent than the parent SB-T-1214” value was “ca. 9 times”.

Take SB-T-12136-SH: in data set [1], the “cytotoxicity, times weaker than the parent taxoid (SB-T-1213)” value is reported as 8 times.

For biotin-FITC [compound 2], in the data set with L1210FR cells (4 °C, 3 h versus 37 °C, by flow cytometry), the “diminished fluorescence in the cells at 4 °C” value is “ca. 6 times”. In the data set on L1210FR cells (37 °C, 3 h), the “internalization into L1210FR cells (CFM)” value was “efficient internalization”. Moreover, the “decrease in fluorescence after pre-incubation with excess free biotin” value in the data set on L1210FR cells (37 °C, 3 h, biotin 2 mM pre-incubated 1 h) is “ca. 4.5 times”. In addition, the “decrease in fluorescence inside the cells in the presence of NaN3” value in the data set on L1210FR cells (3 h, 37 °C, 0.05 % (w/v) NaN3) is given as “ca. 4 times”.
